The results in this text go back to US8329919B2, “Salt hydrates” (Novartis AG, priority 2002, dated 2012).

“And” between values parts separate entries of the source, which are not always exact repeats. Equal values may be shown once.

This data set in a line: Thermogravimetry: weight loss, i.e. water loss, as a function of temperature (thermobalance TGS-2). The format is physicochemical. Conditions: heating rate 10 K·min^−1, water-free N2 atmosphere. The method, then: Using thermogravimetry, in a water-free N2 atmosphere, the weight loss, i.e. the water loss for the tetrahydrate of the calcium salt of valsartan A1,Ca as a function of temperature, was measured at a heating rate of 10 K·min^−1. […]
Using thermogravimetry, in a water-free N2 atmosphere, the weight loss, i.e. the water loss for the trihydrate of the calcium salt of valsartan in the polymorphic form B1,Ca as a function of temperature, was measured at a heating rate of 10 K·min^−1.
Using thermogravimetry, in a water-free N2 atmosphere, the weight loss, i.e. the water loss for the trihydrate B2,Ca as a function of temperature, was measured at a heating rate of 10 K·min^−1. The results for the polymorph B2,Ca of the trihydrate of the calcium salt of valsartan are illustrated in table 4.
Using thermogravimetry, in a water-free N2 atmosphere, the weight loss, i.e. the water loss for the trihydrate B3,Ca as a function of temperature, was measured at a heating rate of 10 K·min^−1. The results for the polymorphic form B3,Ca of the trihydrate of the calcium salt of valsartan are illustrated in table 5.
Using thermogravimetry, in a water-free N2 atmosphere, the weight loss, i.e. the water loss for the di-(calcium salt of valsartan) pentahydrate D1,Ca as a function of temperature, was measured at a heating rate of 10 K·min^−1.
The instrument used for the calorimetric data is throughout a DSC Pyris 1 (Differential Scanning calorimeter) obtained from Perkin-Elmer Corp., Norwalk, Conn. USA. The measurements are performed with samples enclosed in a sealed gold specimen container with an internal free volume of ca. 22 microliters, with a sample weight of 2 to 4 mg and with a heating rate of Tr=10K·min^−1. […] The instrument used was a TGS-2 (Perkin-Elmer Corp., Norwalk, Conn. USA) and the measurement was performed in a water free atmosphere. The heating rate selected was 10 K·min^−1. The weight loss is illustrated in table 7.
The heating rate selected was 10K·min^−1.
Using thermogravimetry, in a water-free N2 atmosphere, the weight loss, i.e. the water loss for the tetrahydrate as a function of temperature, was measured at a heating rate of 10 K·min^−1. The results for the calcium salt of valsartan tetrahydrate A0,Ca are listed in the following: […]
Using thermogravimetry, in a water-free N2 atmosphere, the weight loss, i.e. the water loss for the tetrahydrate of the calcium salt of valsartan as a function of temperature, was measured at a heating rate of 10 K·min^−1.

As to `CCCCC(=O)N(Cc1ccc(-c2ccccc2-c2nnn[nH]2)cc1)[C@H](C(=O)O)C(C)C` [A0,Mg, (S)—N-(1-carboxy-2-methyl-prop-1-yl)-N-pentanoyl-N-[2′-(1H-tetrazol-5-yl)-biphenyl-4-ylmethyl]-amine], the “weight loss or water loss in %” value (temperature 25 °C) amounted to 0.0%; the “weight loss or water loss in %” value (temperature 50 °C) turned out to be 1.2%; the “weight loss or water loss in %” value (temperature 75 °C) is reported as 4.2%; the “weight loss or water loss in %” value (temperature 100 °C) was 11.0%; the “weight loss or water loss in %” value (temperature 125 °C) is given as 16.7%; the “weight loss or water loss in %” value (temperature 150 °C) turned out to be 17.7%. The “weight loss or water loss in %” value reads like this: (temperature 175 °C) 18.3%; (temperature 200 °C) 18.5%; (temperature 225 °C) 18.7%; (temperature 250 °C) 18.9%; (temperature 275 °C) 19.3%.
For the compound `CCCCC(=O)N(Cc1ccc(-c2ccccc2-c2nnn[nH]2)cc1)[C@H](C(=O)O)C(C)C` [A1,Mg, (S)—N-(1-carboxy-2-methyl-prop-1-yl)-N-pentanoyl-N-[2′-(1H-tetrazol-5-yl)-biphenyl-4-ylmethyl]-amine], the “weight loss or water loss in %” value (temperature 25 °C) is 0.1 ± 0.1% and 0%; the “weight loss or water loss in %” value (temperature 50 °C) was 1.0 ± 0.3% and 0.9%; the “weight loss or water loss in %” value (temperature 75 °C) was 6.8 ± 0.5% and 6.8%; the “weight loss or water loss in %” value (temperature 100 °C) is 14.1 ± 0.5% and 14.3%; the “weight loss or water loss in %” value (temperature 125 °C) is 15.6 ± 0.5% and 15.7%; the “weight loss or water loss in %” value (temperature 150 °C) is 16.4 ± 0.5% and 16.5%. Also, the “weight loss or water loss in %” value is, setting by setting: (temperature 175 °C) 16.9 ± 0.5% and 17.0%; (temperature 200 °C) 17.1 ± 0.5% and 17.2%; (temperature 225 °C) 17.3 ± 0.5% and 17.4%; (temperature 250 °C) 17.6 ± 0.5% and 17.8%; (temperature 275 °C) 18.3 ± 0.5% and 18.3%.
Turning to `CCCCC(=O)N(Cc1ccc(-c2ccccc2-c2nnn[nH]2)cc1)[C@H](C(=O)O)C(C)C` [A2,Ca, (S)—N-(1-carboxy-2-methyl-prop-1-yl)-N-pentanoyl-N-[2′-(1H-tetrazol-5-yl)-biphenyl-4-ylmethyl]-amine], the “weight loss or water loss in %” value (temperature 25 °C) was 0 ± 0.3% and 0%; the “weight loss or water loss in %” value (temperature 50 °C) was 0.1 ± 0.3% and 0%; the “weight loss or water loss in %” value (temperature 75 °C) was 0.5 ± 0.5% and 0%; the “weight loss or water loss in %” value (temperature 100 °C) was 4.9 ± 0.5% and 4.7%; the “weight loss or water loss in %” value (temperature 125 °C) is 11.2 ± 0.5% and 11.1%; the “weight loss or water loss in %” value (temperature 150 °C) was 12.2 ± 0.5% and 11.9%. Besides, the “weight loss or water loss in %” value by setting is: (temperature 175 °C) 12.6 ± 0.5% and 12.3%; (temperature 200 °C) 12.7 ± 0.5% and 12.5%; (temperature 225 °C) 12.8 ± 0.5% and 12.6%; (temperature 250 °C) 12.8 ± 0.5% and 12.7%; (temperature 275 °C) 13.0 ± 0.5% and 13.3%.
As for `CCCCC(=O)N(Cc1ccc(-c2ccccc2-c2nnn[nH]2)cc1)[C@H](C(=O)O)C(C)C` [B1,Mg, (S)—N-(1-carboxy-2-methyl-prop-1-yl)-N-pentanoyl-N-[2′-(1H-tetrazol-5-yl)-biphenyl-4-ylmethyl]-amine], the “weight loss or water loss in %” value reads like this: (temperature 25 °C) 0 ± 0.1%; (temperature 50 °C) 2.1 ± 0.3%; (temperature 75 °C) 6.5 ± 0.5%; (temperature 100 °C) 9.5 ± 0.5%; (temperature 125 °C) 11.1 ± 0.5%; (temperature 150 °C) 12.0 ± 0.5%. The “weight loss or water loss in %” value by setting is: (temperature 175 °C) 12.5 ± 0.5%; (temperature 200 °C) 12.8 ± 0.5%; (temperature 225 °C) 13.0 ± 0.5%; (temperature 250 °C) 13.6 ± 0.5%; (temperature 275 °C) 14.3 ± 0.5%.
Turning to `CCCCC(=O)N(Cc1ccc(-c2ccccc2-c2nn[n-]n2)cc1)[C@H](C(=O)[O-])C(C)C.CCCCC(=O)N(Cc1ccc(-c2ccccc2-c2nn[n-]n2)cc1)[C@H](C(=O)[O-])C(C)C.O.O.O.O.O.[Ca+2].[Ca+2]` [D1,Ca, di-{calcium salt of (S)—N-(1-carboxy-2-methyl-prop-1-yl)-N-pentanoyl-N-[2′-(1H-tetrazol-5-yl)-biphenyl-4-ylmethyl]-amine}pentahydrate], the “weight loss or water loss in %” value reads like this: (temperature 25 °C) 0.1 ± 0.1% and 0.1%; (temperature 50 °C) 1.3 ± 0.3% and 1.7%; (temperature 75 °C) 2.8 ± 0.5% and 3.3%; (temperature 100 °C) 5.1 ± 0.5% and 5.1%; (temperature 125 °C) 7.4 ± 0.5% and 7.1%; (temperature 150 °C) 8.0 ± 0.5% and 7.7%. Besides, the “weight loss or water loss in %” value by setting is: (temperature 175 °C) 8.1 ± 0.5% and 7.9%; (temperature 200 °C) 8.2 ± 0.5% and 8.0%; (temperature 225 °C) 8.2 ± 0.5% and 8.1%; (temperature 250 °C) 8.3 ± 0.5% and 8.3%; (temperature 275 °C) 8.6 ± 0.5% and 8.6%.
With `CCCCC(=O)N(Cc1ccc(-c2ccccc2-c2nnn[nH]2)cc1)[C@H](C(=O)O)C(C)C` [F1,Ca, (S)—N-(1-carboxy-2-methyl-prop-1-yl)-N-pentanoyl-N-[2′-(1H-tetrazol-5-yl)-biphenyl-4-ylmethyl]-amine], the “weight loss or water loss in %” value amounted to 0.6% (temperature 25 °C); 3.0% (temperature 50 °C); 5.6% (temperature 75 °C); 7.1% (temperature 100 °C); 7.9% (temperature 125 °C); 8.3% (temperature 150 °C). For the same compound, the “weight loss or water loss in %” value by setting is: (temperature 175 °C) 8.6%; (temperature 200 °C) 8.6%; (temperature 225 °C) 8.8%.
In the case of “(S)—N-(1-carboxy-2-methyl-prop-1-yl)-N-pentanoyl-N-[2′-(1H-tetrazol-5-yl)-biphenyl-4-ylmethyl]-amine calcium salt tetrahydrate [A0,Ca]”, the “weight loss or water loss in %” value runs as follows: (temperature 25 °C) 0%; (temperature 50 °C) 0%; (temperature 75 °C) 0.5%; (temperature 100 °C) 3.5%; (temperature 125 °C) 10.2%; (temperature 150 °C) 12.4%. Besides, the “weight loss or water loss in %” value runs as follows: (temperature 175 °C) 12.8%; (temperature 200 °C) 12.9%; (temperature 225 °C) 13.0%; (temperature 250 °C) 13.3%; (temperature 275 °C) 13.2%.
Take “(S)—N-(1-carboxy-2-methyl-prop-1-yl)-N-pentanoyl-N-[2′-(1H-tetrazol-5-yl)-biphenyl-4-ylmethyl]-amine calcium salt tetrahydrate [A1,Ca]”: the “weight loss or water loss in %” value was 1.1 ± 0.5% and 1.1% (temperature 25 °C); 3.3 ± 0.5% and 3.3% (temperature 50 °C); 5.1 ± 0.5% and 5.1% (temperature 75 °C); 9.6 ± 1.0% and 9.6% (temperature 100 °C); 12.2 ± 0.5% and 12.1% (temperature 125 °C); 12.9 ± 0.5% and 12.9% (temperature 150 °C). Moreover, the “weight loss or water loss in %” value is 13.2 ± 0.5% and 13.2% (temperature 175 °C); 13.3 ± 0.5% and 13.3% (temperature 200 °C); 13.4 ± 0.5% and 13.4% (temperature 225 °C); 13.3 ± 0.5% and 13.3% (temperature 250 °C); 13.7 ± 0.5% and 13.7% (temperature 275 °C).
